Results published in the supplement of paper PMC10307832.

What was measured:
Experiment in all cases: relative viability (nuclei count vs DMSO), 5 days (fraction); higher = more cells survive
Palbociclib = compound: CC(=O)c1c(C)c2cnc(Nc3ccc(N4CCNCC4)cn3)nc2n(C2CCCC2)c1=O [Palbociclib]
Summary of the method: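 Cells of lung cancer lines were placed in 1536-well plates and kept overnight at 37 °C. Pinning then delivered five library-drug doses (not always all listed), spaced by √10, onto plates anchored with vehicle, and the cells were left 5 days without changing medium. One step fixed, permeabilised and stained them with Hoechst, and MetaXpress counted nuclei in 4× images. Viability, as a median over plates, is treated-well nuclei divided by vehicle-well nuclei, with acceptance only at control CV below 25% and at least one doubling.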

Palbociclib + Dasatinib = compound: CC(=O)c1c(C)c2cnc(Nc3ccc(N4CCNCC4)cn3)nc2n(C2CCCC2)c1=O [Palbociclib] + Cc1nc(Nc2ncc(C(=O)Nc3c(C)cccc3Cl)s2)cc(N2CCN(CCO)CC2)n1 [Dasatinib] (partner 0.075 µM)
Summary of the method: (§1)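 Relative viability divides the nuclei count in treated wells by that in vehicle wells. Lung cancer cell lines were seeded in 1536-well plates, dosed by pin tool the next day, and fixed and stained after 5 days in one step with final 0.05% Triton X-100, 1% formaldehyde and 1 ug/ml Hoechst. Dosing was a single drug or a fixed anchor-drug dose plus five library-drug doses (not always all listed) in √10 steps, and values are medians of duplicate plates imaged at 4×.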

Palbociclib + Decitabine = compound: CC(=O)c1c(C)c2cnc(Nc3ccc(N4CCNCC4)cn3)nc2n(C2CCCC2)c1=O [Palbociclib] + Nc1ncn([C@H]2C[C@H](O)[C@@H](CO)O2)c(=O)n1 [Decitabine] (partner 2 µM)
Summary of the method: as §1

Row | Cell Line | relative viability (Palbociclib; 0.01 µM) | relative viability (Palbociclib; 0.03162 µM) | relative viability (Palbociclib; 0.1 µM) | relative viability (Palbociclib; 0.3162 µM) | relative viability (Palbociclib; 0.5 µM, anchor plate) | relative viability (Palbociclib; 1 µM) | relative viability (Palbociclib + Dasatinib; first compound 0.01 µM) | relative viability (Palbociclib + Dasatinib; first compound 0.03162 µM) | relative viability (Palbociclib + Dasatinib; first compound 0.1 µM) | relative viability (Palbociclib + Dasatinib; first compound 0.3162 µM) | relative viability (Palbociclib + Dasatinib; first compound 1 µM) | relative viability (Palbociclib + Decitabine; first compound 0.01 µM) | relative viability (Palbociclib + Decitabine; first compound 0.03162 µM) | relative viability (Palbociclib + Decitabine; first compound 0.1 µM) | relative viability (Palbociclib + Decitabine; first compound 0.3162 µM) | relative viability (Palbociclib + Decitabine; first compound 1 µM)
1 | NCI-H520 | 0.915 | 0.677 | 0.596 | 0.549 | 0.237 | 0.36 | 0.206 | 0.458 | 0.142 | 0.153 | 0.171 | 0.491 | 0.417 | 0.423 | 0.395 | 0.29
2 | NCI-H596 | 0.894 | 0.775 | 0.9 | 0.876 |  | 1.04 | 0.606 |  | 0.551 | 0.599 | 0.613 | 1.15 | 0.973 | 1.05 | 0.945 | 1.22
3 | NCI-H647 | 1.06 | 0.781 | 0.865 | 0.82 | 0.415 | 0.597 | 0.177 | 0.142 | 0.143 | 0.163 | 0.139 | 0.408 | 0.315 | 0.356 | 0.392 | 0.337
4 | NCI-H650 | 0.971 |  | 0.711 | 0.794 | 0.327 | 0.516 | 0.516 | 0.328 | 0.355 | 0.398 | 0.289 | 0.305 |  | 0.31 | 0.306 | 0.354
5 | NCI-H661 | 0.968 | 0.862 | 0.765 | 0.611 | 0.415 | 0.455 | 0.901 | 0.793 | 0.476 | 0.533 | 0.435 | 0.547 | 0.484 | 0.476 | 0.461 | 0.39
6 | NCI-H727 | 0.814 | 0.786 | 0.653 | 0.659 | 0.625 | 0.564 | 0.342 | 0.302 | 0.299 | 0.242 | 0.218 | 0.866 | 0.964 | 0.895 | 0.829 | 0.669
7 | NCI-H838 | 1.06 | 0.833 | 0.761 | 0.816 | 0.232 | 0.353 | 0.278 | 0.318 | 0.213 | 0.22 | 0.213 | 0.455 | 0.461 | 0.48 | 0.434 | 0.353
8 | NCI-H1299 | 0.981 | 0.977 | 0.906 | 0.839 |  | 0.729 |  |  |  |  |  |  |  |  |  | 
9 | NCI-H1355 | 0.999 | 0.672 | 0.884 | 0.844 | 0.427 | 0.62 | 0.774 | 0.587 | 0.588 | 0.569 | 0.384 | 0.348 | 0.379 | 0.352 | 0.351 | 0.342
10 | NCI-H1563 | 0.988 | 0.896 | 0.85 | 0.869 |  | 0.853 | 0.456 | 0.44 | 0.484 | 0.471 | 0.429 |  |  |  |  | 
11 | NCI-H1648 | 1.12 | 0.451 | 0.667 | 0.764 | 0.284 | 0.336 |  |  |  |  |  | 0.651 | 0.376 | 0.445 | 0.511 | 0.339
12 | NCI-H1703 | 0.912 | 0.676 | 0.842 | 0.444 |  | 0.345 |  |  |  |  |  |  |  |  |  | 
13 | NCI-H2228 | 1.01 | 0.844 | 0.937 | 0.899 | 0.85 | 0.795 | 0.546 | 0.449 | 0.418 | 0.409 | 0.408 |  |  |  |  | 
